# Results from patent US10921257B2, “Method and system of pesticide detection using SERS” (priority 2016, dated 2021).
# Columns and labels:
# [1] = system: spinach leaves; experiment: SERS depth mapping of pesticide and AuNPs penetration into spinach leaves (Example 2); conditions: 100 mg/L
# Method: (§1) Organic grapes and spinach leaves were carefully hand washed as described above for apples before experiment to remove surface contaminants. In order to study pesticide penetration in grapes, the same two washing methods were used as presented above for apples. Grapes treated with each pesticides solution (100 mg/L) were washed with either a 5% acetic acid or 1% NaHCO3 solution. Washing effects were evaluated using the SERS methods and the penetration behaviors of each pesticide were monitored as for apple above. Pesticides penetration experiments on spinach leaves were carried out as described above for apple and grape.
# (§2) A DXR Raman microscope (Thermo Fisher Scientific, Madison, Wis., USA) with a 780 nm laser and a 20× long distance microscope objective was used in this study. Each sample was scanned from 400 to 2000 cm^−1 for a 2 s exposure time. For measuring pesticides on both gold slides and fresh produce surfaces, Raman mapping was carried out using a 50 μm slit aperture and 5 mW laser power to maximize the signals. Ten discrete locations were randomly chosen on each sample for analysis. For penetration studies, SERS depth mapping images were obtained using a 50 μm pinhole aperture and 1 mW laser power to control the confocal depths using a scanning depth of 300 μm. Each depth scanning vertical to produce surface was randomly selected in apple peel, grape peel or spinach leaf with an area of 100 μm×300 μm. The step size of the depth mapping was 20 μm and one image contained 75 scanning spots. Raman images were integrated based on the characteristic peaks in the pesticide spectra using the Atlμs Function in the OMINCS software (Thermo Fisher Scientific). Statistical analysis was conducted using SPSS Statistics 22 software (IBM Corporation, Armonk, N.Y., USA). The differences among results were calculated using an analysis of variance (ANOVA) and a post hoc Duncan test with a confidence level of 95%.
# [2] = system: harvested basil leaves; experiment: SERS depth mapping of pesticide and AuNPs penetration into harvested basil leaves (Example 3); conditions: 10 mg/L
# Method: (§3) A 5 μL aliquot of the mixture was pipetted onto harvested leaves or onto the live leaves on the plant. After air drying for 30 min, SERS depth mapping images were obtained using a confocal Raman instrument as detailed below.
# For the study of the pesticides penetration on harvested basil leaves, 36 intact leaves (0.2 g per leaf) were first cut off from petiole on live plants using a sharp knife and carefully rinsed as described above for live leaves. During the experiment, the stems of each harvested leaf were immersed into water to keep the leaf fresh. To study pesticide penetration into harvested leaves, the same rinsing method and pesticides penetration protocols were carried out as described above for live leaves.
# For penetration studies, SERS depth mapping images were obtained using a 50 μm pinhole aperture and 3 mW laser power to control the confocal depth using a scanning depth of 300 μm. Each depth area (100 μm×300 μm) was chosen from the treated spot on the leaf distant from a gland because the gland is the cavity, not a flat surface. The step size of the depth mapping was 20 μm and one image contained 75 scanning spots. […] The differences among results were calculated using an independent sample T-test or analysis of variance (ANOVA) and a post hoc Duncan test with a confidence level of 95%.
# [3] = system: grape; experiment: SERS depth mapping of pesticide and AuNPs penetration into grapes (Example 2); conditions: 100 mg/L
# Method: as §1, §2
# [4] = system: apple; experiment: SERS depth mapping of pesticide and AuNPs penetration into apples (Example 2); conditions: 100 mg/L
# Method: Organic apples were carefully hand washed with ultrapure water for 3 min and air-dried before experiment to remove surface contaminants. Then a 5 μL aliquot from a 100 mg/L solution of each pesticide was pipetted onto the apple surface. After air-drying the pesticides, apple peels with ˜2.0×2.0 cm^2 area were cut from each treated apple using a sharp knife. To determine pesticide penetration with penetrative AuNPs, any interference caused by pesticide residues on the apple surface were removed by washing. Two different washing methods were investigated using either an acetic acid- or NaHCO3-containing solution. Each peel was immersed into 20 mL of either a 5% acetic acid or a 1% NaHCO3 solution for different times and gently rinsed with 200 mL of deionized water for 10 s, respectively. All washed samples were air-dried at room temperature for 10 min before being treated with AuNPs. After drying AuNPs for 1 h, SERS detection was performed on that area to evaluate washing effects. Ten discrete locations were randomly chosen on each apple peel sample and scanned. Similar samples were prepared without either washing method and were scanned as above for comparisons.
# Following drying, the surface residues from each applied pesticide were washed off using either the NaHCO3 or acetic acid solution and a 5 μL aliquot of the 250 mg/L AuNPs solution was added as described above. After 1 h of drying, SERS depth mapping images were obtained using the confocal Raman instrument.
# A DXR Raman microscope (Thermo Fisher Scientific, Madison, Wis., USA) with a 780 nm laser and a 20× long distance microscope objective was used in this study. Each sample was scanned from 400 to 2000 cm^−1 for a 2 s exposure time. […] Ten discrete locations were randomly chosen on each sample for analysis. For penetration studies, SERS depth mapping images were obtained using a 50 μm pinhole aperture and 1 mW laser power to control the confocal depths using a scanning depth of 300 μm. […] The step size of the depth mapping was 20 μm and one image contained 75 scanning spots. Raman images were integrated based on the characteristic peaks in the pesticide spectra using the Atlμs Function in the OMINCS software (Thermo Fisher Scientific). […] The differences among results were calculated using an analysis of variance (ANOVA) and a post hoc Duncan test with a confidence level of 95%.
# [5] = system: live basil leaves; experiment: SERS depth mapping of pesticide and AuNPs penetration into live basil leaves (Example 3)
# Method: as §3
# For the study of pesticide penetration into live basil leaves, 36 intact leaves (approximately 0.2 g per leaf) were selected from six live plants as the experimental target (6 leaves per plant) and carefully rinsed with 450 mL ultrapure water for 30 s and air-dried before the experiment to remove surface contaminants like dust. After rinsing, the clean leaves were used to study of pesticide penetration. […] Some of the pesticides might penetrate into leaves from the surface during the periods. After pesticide penetrated into leaves for different time periods, ultrapure water with flow rate of 15 mL/s was utilized to gently rinse the surface of leaves (Step 2). Different rinsing times were then investigated to complete removal of each pesticide residue on the surface. After rinsing of surface pesticide residues, all leaf samples were air-dried at room temperature for 30 min. […] The video camera in the Raman microscope was used to record the position on the leaves and help to find the same area for AuNPs deposition. After AuNPs treatment for drying 30 min, SERS detection was performed on that area using the confocal Raman instrument. Each treatment was performed twice.
# For penetration studies, SERS depth mapping images were obtained using a 50 μm pinhole aperture and 3 mW laser power to control the confocal depth using a scanning depth of 300 μm. Each depth area (100 μm×300 μm) was chosen from the treated spot on the leaf distant from a gland because the gland is the cavity, not a flat surface. The step size of the depth mapping was 20 μm and one image contained 75 scanning spots. Raman images were integrated based on the characteristic peaks in the pesticide spectra using the Atlμs Function in the OMINCS software (Thermo Fisher Scientific). There was one spot on each leaf and one depth area was selected from each spot. For each pesticide depth mapping experiment, there were six duplicates with six leaves coming from three different plants (2 leaves from each plant).
# Pesticide penetration was investigated using both intact and damaged leaves on live plants. Damaged leaves were prepared using a sharp knife to scratch the top surface of intact leaves. Each of the damaged leaves had 20 scrapes on each leaf and the distance between each scrape is 0.2 cm.
# [6] = system: spinach leaves; experiment: SERS depth mapping of pesticide and AuNPs penetration into spinach leaves (Example 1); conditions: 20 ppm
# Method: These leaves were carefully washed with ultrapure water and dried before experimentation. […] A volume of 50 μL of each solution was then mixed with 50 μL of a 250 ppm 50 nm AuNPs solution for 1 min. at room temperature to ensure complete pesticide complexation with AuNPs through Au-thiol bond. 5 μL of each of the pre-prepared pesticide solution were then pipetted onto spinach leaves situated on a glass slide and air-dried in a fume hood for 30 min. […] All controls were air-dried in a fume hood as above. For evaluation of feasibility of Raman detection of pesticides on spinach leaves, 5 μL of the pre-prepared pesticide solution and AuNPs solution without pesticide were also dropped onto a gold slide and dried for 30 min in a hood for comparisons. Raman spectra were collected individually for all treatments.
# After 1 h, bright field light scattering images and SERS mapping images were collected from all samples.
# In order to remove any interference caused by pesticide residues on the spinach leaf surface, different washing methods were investigated. […] Then each leaf was immersed into 20 mL of deionized water or 20 mL of a 10 mg/mL of NaHCO3 solution. For the water washing method, each leaf was submerged into water for either 10 or 60 min. For the NaHCO3 washing method, each leaf was submerged into the NaHCO3 solution for 30, 60, 90, or 120 s and then gently rinsed with 500 mL of deionized water for 30 s, respectively. All washed leaf samples were air-dried at room temperature for 30 min before being treated with AuNPs. […]
# After 1 h for drying, SERS depth mapping images were obtained using the confocal Raman instrument. Similar samples without washing were likewise measured for comparison purposes.
# To study accurate systemic pesticide penetration, different washing methods were also used to remove surface thiabendazole residues. […] Surface thiabendazole residues were then analyzed by pipetting 5 μL of a 250 ppm AuNP solution onto the same leaf area where thiabendazole had been placed prior to washing and determining SERS depth mapping images by Raman instrument as before. […]
# [7] = 48 h exposure, surface residues washed off
smiles,measurement,setting,value
"c1ccc2[nH]c(-c3cscn3)nc2c1 [thiabendazole, 2-(4-thiazolyl)-1H-benzimidazole]",Exposure time at which pesticide was first detected,[1],30 min
same,Penetration depth,[1]; 30 min,100 μm
same,Penetration depth,[1]; 24 h,~160 μm
same,Penetration depth,[1]; [7],~220 μm
same,Exposure time at which penetration was first seen,[2],30 min
same,Penetration depth,"[2]; 48 h after exposure, surface rinsed",approximately 180 μm
same,Exposure time at which penetration was first apparent,[3],30 min
same,Penetration depth,[3]; 24 h,about 36 μm
same,Penetration depth,[3]; [7],about 55 μm
same,Exposure time at which penetration was first observed,[4],30 min
same,Penetration depth,[4]; 24 h,about 140 μm
same,Penetration depth,[4]; [7],approximately 160 μm
same,Exposure time at which penetration was first seen,"[5]; 10 mg/L, live leaves",30 min
same,Penetration depth,"[5]; 10 mg/L, live leaves, 48 h after exposure, surface rinsed",~225 μm
same,Penetration depth,[5]; damaged (knife-scratched) leaves on live plants,80 μm
same,Penetration depth,[5]; intact leaves on live plants,170 μm
same,Penetration depth,"[5]; large (old, 45 days) leaves, 24 h exposure",165 μm
same,Penetration depth,"[5]; small (young, 15 days) leaves, 24 h exposure",95 μm
same,Earliest time of detecting pesticide inside leaves,[6]; surface residues washed off with NaHCO3,6 h
same,Penetration depth in depth mapping images with increasing exposure time,[6]; washed,approximately 150 μm
same,Penetration depth from scans parallel to leaf surface at different depths,"[6]; washed, 2 days exposure",approximately 210 μm
"COP(=S)(OC)SCN1C(=O)c2ccccc2C1=O [phosmet, O,O-dimethyl S-Phthalimido Methyl Phosphorodithioate]",Exposure time at which pesticide was first detected,[1],1440 min
same,Penetration depth,[1]; [7],70 μm
same,Exposure time at which penetration was first observed,[3],48 h
same,Penetration depth,[3]; [7],about 20 μm
same,Exposure time at which pesticide was first detected,[4],6 h
same,Penetration depth,[4]; [7],~55 μm
"C/C(=N\C#N)N(C)Cc1ccc(Cl)nc1 [acetamiprid, (E)-N-[(6-chloro-3-pyridyl)methyl]-N′-cyano-N-methylethanimidamide]",Penetration depth,[1]; [7],90 μm
same,Exposure time at which penetration was first apparent,[3],30 min
same,Penetration depth,[3]; [7],about 75 μm
same,Exposure time at which penetration was first observed,[4],30 min
same,Penetration depth,[4]; [7],~140 μm
